“And” between values parts separate entries of the source, which are not always exact repeats. Identical values can stand only once.
Experiments:
[1] = system: caterpillars of the army worm (Spodoptera frugiperda); experiment: Spodoptera frugiperda test (cabbage leaves dipped); assay type: in vivo; details: 168 h, 500 ppm active compound, after 7 d, read-out: Kill rate in % after 7 d
Procedure: Spodoptera frugiperda Test
(§1) To produce a suitable preparation of active compound, 1 part by weight of active compound is mixed with the stated amounts of solvent and emulsifier, and the concentrate is diluted with emulsifier-containing water to the desired concentration.
Cabbage leaves (Brassica oleracea) are treated by being dipped into the preparation of active compound of the desired concentration and are populated with caterpillars of the army worm (Spodoptera frugiperda) while the leaves are still moist.
(§2) After the desired period of time, the kill in % is determined. 100% means that all caterpillars have been killed; 0% means that none of the caterpillars have been killed.

[2] = logP determination by HPLC (reversed-phase C18), EEC directive 79/831 Annex V.A8; assay type: physicochemical; details: pH 2.3, 0.1% aqueous phosphoric acid/acetonitrile gradient, 43° C.; for chromatographic logP: read-out: log P (pH 2.3)
Procedure: The stated logP values were determined in accordance with EEC directive 79/831 Annex V.A8 by HPLC (High Performance Liquid Chromatography) using a reversed-phase column (C 18). Temperature: 43° C.
In the acidic range, the determination was carried out at pH 2.3 using the mobile phases 0.1% aqueous phosphoric acid and acetonitrile; linear gradient from 10% acetonitrile to 90% acetonitrile.
Calibration was carried out using unbranched alkan-2-ones (having 3 to 16 carbon atoms) with known logP values (determination of the logP values by the retention times using linear interpolation between two successive alkanones.

[3] = system: Heliothis virescens caterpillars; experiment: Heliothis virescens test (soybean shoots dipped); assay type: in vivo; details: 500 ppm active compound
Procedure: as §1
Soybean shoots (Glycine max) are treated by being dipped into the preparation of active compound of the desired concentration and are populated with Heliothis virescens caterpillars while the leaves are still moist.
as §2

[4] = system: larvae of the mustard beetle (Phaedon cochleariae); experiment: Phaedon larvae test (cabbage leaves dipped); assay type: in vivo; details: 500 ppm active compound
Procedure: as §1
Cabbage leaves (Brassica oleracea) are treated by being dipped into the preparation of active compound of the desired concentration and are populated with larvae of the mustard beetle (Phaedon cochleariae) while the leaves are still moist.
After the desired period of time, the kill in % is determined. 100% means that all beetle larvae have been killed; 0% means that none of the beetle larvae have been killed.

[5] = system: caterpillars of the diamond back moth (Plutella xylostella, sensitive strain); experiment: Plutella test, sensitive strain (cabbage leaves dipped); assay type: in vivo; details: 500 ppm active compound
Procedure: Plutella Test, Sensitive Strain
as §1
Cabbage leaves (Brassica oleracea) are treated by being dipped into the preparation of active compound of the desired concentration and are populated with caterpillars of the diamond back moth (Plutella xylostella, sensitive strain) while the leaves are still moist.
as §2

[6] = system: caterpillars of the diamond back moth (Plutella xylostella, resistant strain); experiment: Plutella test, resistant strain (cabbage leaves dipped); assay type: in vivo; details: 500 ppm active compound
Procedure: Plutella Test, Resistant Strain
as §1
Cabbage leaves (Brassica oleracea) are treated by being dipped into the preparation of active compound of the desired concentration and are populated with caterpillars of the diamond back moth (Plutella xylostella, resistant strain) while the leaves are still moist.
as §2

[7] = system: caterpillars of the army worm (Spodoptera exigua); experiment: Spodoptera exigua test (cabbage leaves dipped); assay type: in vivo; details: 500 ppm active compound
Procedure: as §1
Cabbage leaves (Brassica oleracea) are treated by being dipped into the preparation of active compound of the desired concentration and are populated with caterpillars of the army worm (Spodoptera exigua) while the leaves are still moist.
as §2

Cc1cc(C(F)(C(F)(F)F)C(F)(F)F)ccc1NC(=O)c1c(Cl)cccc1C(=O)NCC(C)(C)O[Si](C)(C)C
pest or weed control at 500 ppm [1]: 100%

Cc1cc(C(F)(C(F)(F)F)C(F)(F)F)ccc1NC(=O)c1cccc(Cl)c1C(=O)NC[Si](C)(C)C
pest or weed control at 500 ppm [1]: 100%

Cc1cc(C(F)(C(F)(F)F)C(F)(F)F)ccc1NC(=O)c1cccc(Cl)c1C(=O)NCC(C)(C)O[Si](C)(C)C
pest or weed control at 500 ppm [1]: 100%

Cc1cc(Oc2ccc(C(F)(F)F)cc2)ccc1NC(=O)c1c(I)cccc1C(=O)NC(C)CSC[Si](C)(C)C (stereo not shown)
pest or weed control at 500 ppm [1]: 100%

Cc1cc(Oc2ccc(C(F)(F)F)cc2)ccc1NC(=O)c1c(Cl)cccc1C(=O)NC(C)CSC[Si](C)(C)C (stereo not shown)
pest or weed control at 500 ppm [1]: 100%

Cc1cc(-c2nnn(C(C)(C)C)n2)ccc1NC(=O)c1cccc(I)c1C(=O)NC(C)CSC[Si](C)(C)C (stereo not shown)
pest or weed control at 500 ppm [1]: 100%

3-Chloro-N^1-[2-methyl-4-(1,1,2,2-tetrafluoroethoxy)phenyl]-N^2-[(trimethylsilyl)methyl]phthalamide (Isomer 1) and 3-chloro-N^2-[2-methyl-4-(1,1,2,2-tetrafluoroethoxy)phenyl]-N^1-[(trimethylsilyl)methyl]phthalamide (Isomer 2) [Example 2 Isomer Mixture]
log P (pH 2.3) [2]: 3.59 and 3.69

Cc1cc(C(F)(C(F)(F)F)C(F)(F)F)ccc1NC(=O)c1c(Cl)cccc1C(=O)NC(C)CSC[Si](C)(C)C (single isomer, unassigned) [Example 1 Isomer 1, 3-Chloro-N^2-{2-methyl-4-[1,2,2,2-tetrafluoro-1-(trifluoromethyl)ethyl]phenyl}-N^1-(1-methyl-2-{[(trimethylsilyl)methyl]sulphanyl}ethyl)phthalamide]
chromatographic logP [2]: 5.38

Cc1cc(C(F)(C(F)(F)F)C(F)(F)F)ccc1NC(=O)c1cccc(Cl)c1C(=O)NC(C)CSC[Si](C)(C)C (single isomer, unassigned) [Example 1 Isomer 2, 3-Chloro-N^1-{2-methyl-4-[1,2,2,2-tetrafluoro-1-(trifluoromethyl)ethyl]phenyl}-N^2-(1-methyl-2-{[(trimethylsilyl)methyl]sulphanyl}ethyl)phthalamide]
chromatographic logP [2]: 5.56

Cc1cc(C(F)(C(F)(F)F)C(F)(F)F)ccc1NC(=O)c1cccc(Cl)c1C(=O)NCC(C)(C)O[Si](C)(C)C (single isomer, unassigned) [Example 3 Isomer 1, 3-Chloro-N^1-{2-methyl-4-[1,2,2,2-tetrafluoro-1-(trifluoromethyl)ethyl]phenyl}-N^2-{2-methyl-2-[(trimethylsilyl)oxy]propyl}phthalamide]
chromatographic logP [2]: 3.11

Cc1cc(C(F)(C(F)(F)F)C(F)(F)F)ccc1NC(=O)c1c(Cl)cccc1C(=O)NCC(C)(C)O[Si](C)(C)C (single isomer, unassigned) [Example 3 Isomer 2, 3-Chloro-N^2-{2-methyl-4-[1,2,2,2-tetrafluoro-1-(trifluoromethyl)ethyl]phenyl}-N^1-{2-methyl-2-[(trimethylsilyl)oxy]propyl}phthalamide]
chromatographic logP [2]: 3.19

CC(N)CSC[Si](C)(C)C (stereo not shown) [1-{[(trimethylsilyl)methyl]sulphanyl}-2-propanamide]
chromatographic logP [2]: 1.28

Cc1cc(C(F)(C(F)(F)F)C(F)(F)F)ccc1NC(=O)c1c(Cl)cccc1C(=O)NC(C)CSC[Si](C)(C)C (stereo not shown) [drawing 31]
Kill rate in % after 7 d [3]: 100%

Cc1cc(C(F)(C(F)(F)F)C(F)(F)F)ccc1NC(=O)c1cccc(Cl)c1C(=O)NC(C)CSC[Si](C)(C)C (stereo not shown) [drawing 32]
Kill rate in % after 7 d [3]: 100%

Cc1cc(C(F)(C(F)(F)F)C(F)(F)F)ccc1NC(=O)c1c(I)cccc1C(=O)NC(C)CSC[Si](C)(C)C (stereo not shown) [drawing 33]
Kill rate in % after 7 d [3]: 100%

Cc1cc(C(F)(C(F)(F)F)C(F)(F)F)ccc1NC(=O)c1cccc(I)c1C(=O)NC(C)CSC[Si](C)(C)C (stereo not shown) [drawing 34]
Kill rate in % after 7 d [3]: 100%

Cc1cc(C(F)(C(F)(F)F)C(F)(F)F)ccc1NC(=O)c1c(Cl)cccc1C(=O)NC(C)CSC[Si](C)(C)C (stereo not shown) [drawing 35]
Kill rate in % after 7 d [4]: 90%

Cc1cc(C(F)(C(F)(F)F)C(F)(F)F)ccc1NC(=O)c1cccc(Cl)c1C(=O)NC(C)CSC[Si](C)(C)C (stereo not shown) [drawing 36]
Kill rate in % after 7 d [4]: 100%

Cc1cc(C(F)(C(F)(F)F)C(F)(F)F)ccc1NC(=O)c1cccc(I)c1C(=O)NC(C)CSC[Si](C)(C)C (stereo not shown) [drawing 37]
Kill rate in % after 7 d [4]: 100%

Cc1cc(Oc2ccc(C(F)(F)F)cc2)ccc1NC(=O)c1cccc(I)c1C(=O)NC(C)CSC[Si](C)(C)C (stereo not shown) [drawing 38]
Kill rate in % after 7 d [4]: 100%

Cc1cc(Oc2ccc(C(F)(F)F)cc2)ccc1NC(=O)c1cccc(Cl)c1C(=O)NC(C)CSC[Si](C)(C)C (stereo not shown) [drawing 39]
Kill rate in % after 7 d [4]: 100%

Cc1cc(C(F)(C(F)(F)F)C(F)(F)F)ccc1NC(=O)c1c(Cl)cccc1C(=O)NC(C)CSC[Si](C)(C)C (stereo not shown) [drawing 40]
Kill rate in % after 7 d [5]: 100%

Cc1cc(C(F)(C(F)(F)F)C(F)(F)F)ccc1NC(=O)c1cccc(Cl)c1C(=O)NC(C)CSC[Si](C)(C)C (stereo not shown) [drawing 41]
Kill rate in % after 7 d [5]: 100%

Cc1cc(C(F)(C(F)(F)F)C(F)(F)F)ccc1NC(=O)c1c(I)cccc1C(=O)NC(C)CSC[Si](C)(C)C (stereo not shown) [drawing 42]
Kill rate in % after 7 d [5]: 100%

Cc1cc(C(F)(C(F)(F)F)C(F)(F)F)ccc1NC(=O)c1cccc(I)c1C(=O)NC(C)CSC[Si](C)(C)C (stereo not shown) [drawing 43]
Kill rate in % after 7 d [5]: 100%

Cc1cc(C(F)(C(F)(F)F)C(F)(F)F)ccc1NC(=O)c1c(Cl)cccc1C(=O)NC(C)CSC[Si](C)(C)C (stereo not shown) [drawing 44]
Kill rate in % after 7 d [6]: 100%

Cc1cc(C(F)(C(F)(F)F)C(F)(F)F)ccc1NC(=O)c1cccc(Cl)c1C(=O)NC(C)CSC[Si](C)(C)C (stereo not shown) [drawing 45]
Kill rate in % after 7 d [6]: 100%

Cc1cc(C(F)(C(F)(F)F)C(F)(F)F)ccc1NC(=O)c1c(Cl)cccc1C(=O)NC(C)CSC[Si](C)(C)C (stereo not shown) [drawing 46]
Kill rate in % after 7 d [7]: 100%

Cc1cc(C(F)(C(F)(F)F)C(F)(F)F)ccc1NC(=O)c1cccc(Cl)c1C(=O)NC(C)CSC[Si](C)(C)C (stereo not shown) [drawing 47]
Kill rate in % after 7 d [7]: 100%

Cc1cc(C(F)(C(F)(F)F)C(F)(F)F)ccc1NC(=O)c1c(I)cccc1C(=O)NC(C)CSC[Si](C)(C)C (stereo not shown) [drawing 48]
Kill rate in % after 7 d [7]: 100%

Cc1cc(C(F)(C(F)(F)F)C(F)(F)F)ccc1NC(=O)c1cccc(I)c1C(=O)NC(C)CSC[Si](C)(C)C (stereo not shown) [drawing 49]
Kill rate in % after 7 d [7]: 100%

Cc1cc(C(F)(C(F)(F)F)C(F)(F)F)ccc1NC(=O)c1c(Cl)cccc1C(=O)NC(C)CSC[Si](C)(C)C (stereo not shown) [drawing 52]
pest or weed control at 500 ppm [1]: 100%

Cc1cc(C(F)(C(F)(F)F)C(F)(F)F)ccc1NC(=O)c1cccc(Cl)c1C(=O)NC(C)CSC[Si](C)(C)C (stereo not shown) [drawing 54]
pest or weed control at 500 ppm [1]: 100%

Cc1cc(C(F)(C(F)(F)F)C(F)(F)F)ccc1NC(=O)c1c(I)cccc1C(=O)NC(C)CSC[Si](C)(C)C (stereo not shown) [drawing 55]
pest or weed control at 500 ppm [1]: 100%

Cc1cc(C(F)(C(F)(F)F)C(F)(F)F)ccc1NC(=O)c1cccc(I)c1C(=O)NC(C)CSC[Si](C)(C)C (stereo not shown) [drawing 56]
pest or weed control at 500 ppm [1]: 100%

Cc1cc(Oc2ccc(C(F)(F)F)cc2)ccc1NC(=O)c1cccc(I)c1C(=O)NC(C)CSC[Si](C)(C)C (stereo not shown) [drawing 57]
pest or weed control at 500 ppm [1]: 100%

Cc1cc(Oc2ccc(C(F)(F)F)cc2)ccc1NC(=O)c1cccc(Cl)c1C(=O)NC(C)CSC[Si](C)(C)C (stereo not shown) [drawing 58]
pest or weed control at 500 ppm [1]: 100%
